Key:
[1] = system: YopH secretion by Yersinia-strain pIB102; format: cell-based, Y. pseudotuberculosis; details: reduction of assay read-out (pNPP dephosphorylation, 405 nm) at 50 or 20 μM; Ca2+ depleted medium, 37° C.
[2] = system: J774A cells infected with Y. pseudotuberculosis YPIII (pIB102); format: cell-based; details: survival of the infected J774A cells at 20 or 10 μM; MOI 10, 16 h of infection
[3] = system: Yersinia strain pIB102EL (YopE gene transcriptionally fused to luxAB); format: cell-based, Y. pseudotuberculosis
[4] = system: Enterotoxic Escherichia coli (ETEC); format: cell-based

| Compound | YopH Assay [1] | Ex vivo Y. pseudotb. [2] | Lux Assay [3] | Ex vivo ETEC (Neg Control) [4] |
| --- | --- | --- | --- | --- |
| O=[N+]([O-])c1cc(CN2CCN(c3ccccc3)CC2)c(O)c2ncccc12 [Substance 1] | ++ (++ = <50% reduction of assay read-out at 20 μM) | ++ (++ = >70% survival of the infected cells at 10 μM) | ++ (key: + = <50% reduction of assay read-out at 50 μM; ++ = <50% reduction of assay read-out at 20 μM) | – |
| CN(Cc1cc([N+](=O)[O-])c2cccnc2c1O)C1CCCCC1 [Substance 2] | – | – | + (key: + = <50% reduction of assay read-out at 50 μM; ++ = <50% reduction of assay read-out at 20 μM) | – |
| COc1ccccc1N1CCN(Cc2cc([N+](=O)[O-])c3cccnc3c2O)CC1 [Substance 3] | + (+ = <50% reduction of assay read-out at 50 μM) | + (+ = >70% survival of the infected cells at 20 μM) | ++ (key: + = <50% reduction of assay read-out at 50 μM; ++ = <50% reduction of assay read-out at 20 μM) | – |
| CC1CN(Cc2cc([N+](=O)[O-])c3cccnc3c2O)CC(C)O1 (stereo not drawn) [Substance 4] | + (+ = <50% reduction of assay read-out at 50 μM) | + (+ = >70% survival of the infected cells at 20 μM) | + (key: + = <50% reduction of assay read-out at 50 μM; ++ = <50% reduction of assay read-out at 20 μM) | + (key: + = >70% survival of the infected cells at 50 μM; ++ = >70% survival of the infected cells at 20 μM) |
| O=[N+]([O-])c1cc(CN2CCC(c3ccccc3)C2)c(O)c2ncccc12 (stereo not drawn) [Substance 5] | ++ (++ = <50% reduction of assay read-out at 20 μM) | + (+ = >70% survival of the infected cells at 20 μM) | ++ (key: + = <50% reduction of assay read-out at 50 μM; ++ = <50% reduction of assay read-out at 20 μM) | ++ (key: + = >70% survival of the infected cells at 50 μM; ++ = >70% survival of the infected cells at 20 μM) |
| Oc1c(CN2CCN(c3ccccn3)CC2)cc(Cl)c2cccnc12 [Substance 6] | + (+ = <50% reduction of assay read-out at 50 μM) | + (+ = >70% survival of the infected cells at 20 μM) | + (key: + = <50% reduction of assay read-out at 50 μM; ++ = <50% reduction of assay read-out at 20 μM) | + (key: + = >70% survival of the infected cells at 50 μM; ++ = >70% survival of the infected cells at 20 μM) |
| Oc1c(CN2CCN(c3ccc(F)cc3)CC2)cc(Br)c2cccnc12 [Substance 7] | + (+ = <50% reduction of assay read-out at 50 μM) | ++ (++ = >70% survival of the infected cells at 10 μM) | + (key: + = <50% reduction of assay read-out at 50 μM; ++ = <50% reduction of assay read-out at 20 μM) | ++ (key: + = >70% survival of the infected cells at 50 μM; ++ = >70% survival of the infected cells at 20 μM) |
| Oc1c(CN2CCN(c3ccc(F)cc3)CC2)cc(Cl)c2cccnc12 [Substance 8] | + (+ = <50% reduction of assay read-out at 50 μM) | ++ (++ = >70% survival of the infected cells at 10 μM) | + (key: + = <50% reduction of assay read-out at 50 μM; ++ = <50% reduction of assay read-out at 20 μM) | + (key: + = >70% survival of the infected cells at 50 μM; ++ = >70% survival of the infected cells at 20 μM) |
